For experiment [1], the target named is T1, BhFBPA (Bartonella henselae fructose bisphosphate aldolase) (Bartonella henselae, UniProt Q8L207).
T1 construct: gene fbab; full length, 343 residues; E. coli BL21(DE3) R3 Rosetta; 39495 Da; homotetramer; residues 1-340 modelled
T1 sequence (Q8L207 1-343): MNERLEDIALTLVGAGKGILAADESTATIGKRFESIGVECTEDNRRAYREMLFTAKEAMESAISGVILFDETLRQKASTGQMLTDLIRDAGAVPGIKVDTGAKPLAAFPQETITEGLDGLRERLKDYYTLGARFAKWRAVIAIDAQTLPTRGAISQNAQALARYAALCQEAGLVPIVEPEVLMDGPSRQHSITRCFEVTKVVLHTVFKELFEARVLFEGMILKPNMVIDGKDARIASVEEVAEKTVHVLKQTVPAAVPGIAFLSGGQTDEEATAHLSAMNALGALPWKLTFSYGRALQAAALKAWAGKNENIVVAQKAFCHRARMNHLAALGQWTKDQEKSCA
Nature of the experiment: X-ray crystal structure of the complex ([…] A, cocrystallization). It counts as binding. As to conditions: covalent; Schiff base of C2 of linear FBP with Lys223 at the active site; 10 mM FBP, pH 8.5, 290 K.

The target of experiment [2] is Bartonella henselae fructose bisphosphate aldolase (Bartonella henselae). Nature of the experiment: crystal structure; cocrystallised with 10 mM fructose 1,6-bisphosphate, vapor diffusion at 290 K, 0.2 M sodium acetate, 0.1 M Tris pH 8.5, 30% PEG 4000; four monomers in the asymmetric unit; 2.35 A.

On to `O=P(O)(O)OC[C@H]1OC(O)(COP(=O)(O)O)[C@@H](O)[C@@H]1O` (some centres unmarked) [fructose 1,6-bisphosphate], for which the “X-ray crystal structure of the complex (2.35 A, cocrystallization)” value in experiment [1] is listed as “This structure has clear electron density for FBP bound at the active site”.

For “Bartonella henselae fructose bisphosphate aldolase (enzyme)”, the stoichiometry N in experiment [2] is 4.

These data come from publication PMC3169401, “Structure of fructose bisphosphate aldolase from Bartonella henselae bound to fructose 1,6-bisphosphate” (Acta Crystallographica Section F: Structural Biology and …, 2011).
